Source: ChEMBL document CHEMBL5316290, “Targeted Protein Degradation Induced by HEMTACs Based on HSP90” (J Med Chem, 2023)
pEC50, pIC50, pKd: −log10 of the molar value. Calls of active or inactive are those of the source. No cut-off for these calls is given here.

Legend:
[1] = molecular target: Heat shock protein HSP 90-alpha (Homo sapiens, UniProt P07900); test: Binding affinity to CM5 sensor chip immobilized human HSP90alpha assessed as dissociation constant by SPR analysis
[2] = molecular target: HSP90/Cyclin-dependent kinase 4 (Mus musculus, UniProt P07901+P11499+P30285); test: HEMTAC activity at HSP90/CDK4 in mouse B16-F10 cells assessed as induction of CDK4 degradation incubated for 24 hrs by Western blot analysis; assay type: cell-based
[3] = molecular target: HSP90/Cyclin-dependent kinase 6 (Mus musculus, UniProt P07901+P11499+Q64261); test: HEMTAC activity at HSP90/CDK6 in mouse B16-F10 cells assessed as induction of […] degradation incubated for 24 hrs by Western blot analysis; assay type: cell-based
[4] = molecular target: T1, HSP90/Cyclin-dependent kinase 4 (Mus musculus) (UniProt P30285+P07901+P11499); test: HEMTAC activity at HSP90/CDK4 in mouse B16-F10 cells assessed as induction of CDK4 degradation at 0.5 uM pretreated with proteasome inhibitor, MG132 for 2 hrs followed by compound addition and measured after 24 hrs by Western blot analysis; assay type: cell-based
[5] = molecular target: T2, HSP90/Cyclin-dependent kinase 6 (Mus musculus) (UniProt P07901+Q64261+P11499); test: HEMTAC activity at HSP90/CDK6 in mouse B16-F10 cells assessed as induction of […] degradation at 0.5 uM pretreated with proteasome inhibitor, MG132 for 2 hrs followed by compound addition and measured after 24 hrs by Western blot analysis; assay type: cell-based
B16-F10 [6] = test: Binding affinity to HSP90/CDK6 in mouse B16-F10 assessed as ternary complex formation at 5 uM incubated for 6 hrs by co-immunoprecipitation assay; assay type: cell-based
[7] = molecular target: T2, HSP90/Cyclin-dependent kinase 6 (Mus musculus); test: HEMTAC activity at HSP90/CDK6 in mouse B16-F10 cells assessed as induction of CDK6 degradation at 0.1 uM incubated for 24 hrs in presence of palbociclib by Western blot analysis; assay type: cell-based
A549 = test: Cytotoxicity against human A549 cells assessed as inhibition of cell growth incubated for 72 hrs by CCK-8 assay; assay type: functional, cell-based; settings: A549, 72 h
[8] = molecular target: T1, HSP90/Cyclin-dependent kinase 4 (Mus musculus); test: HEMTAC activity at HSP90/CDK4 in mouse B16-F10 cells assessed as reduction in CDK4 protein level at 0.5 uM incubated for 24 hrs by global proteomics analysis; assay type: cell-based
[9] = molecular target: T2, HSP90/Cyclin-dependent kinase 6 (Mus musculus); test: HEMTAC activity at HSP90/CDK6 in mouse B16-F10 cells assessed as reduction in CDK6 protein level at 0.5 uM incubated for 24 hrs by global proteomics analysis; assay type: cell-based
B16-F10 [10] = test: Cytotoxicity against mouse B16-F10 cells assessed as inhibition of cell growth incubated for 72 hrs by CCK-8 assay; assay type: functional, cell-based; settings: B16-F10, 72 h
A-375 = test: Cytotoxicity against human A-375 cells assessed as inhibition of cell growth incubated for 72 hrs by CCK-8 assay; assay type: functional, cell-based; settings: A-375, 72 h
HepG2 = test: Cytotoxicity against human HepG2 cells assessed as inhibition of cell growth incubated for 72 hrs by CCK-8 assay; assay type: functional, cell-based; settings: HepG2, 72 h
MDA-MB-231 = test: Cytotoxicity against human MDA-MB-231 cells assessed as inhibition of cell growth incubated for 72 hrs by CCK-8 assay; assay type: functional, cell-based; settings: MDA-MB-231, 72 h
B16-F10 [11] = test: Induction of apoptosis in mouse B16-F10 cells assessed as early apoptotic cells at 125 nM incubated for 48 hrs by Annexin V-FITC/PI staining based flow cytometry analysis (reference value: 3.42%); assay type: functional
B16-F10 [12] = test: Induction of apoptosis in mouse B16-F10 cells assessed as dead cells at 125 nM incubated for 48 hrs by Annexin V-FITC/PI staining based flow cytometry analysis (reference value: 1.75%); assay type: functional
B16-F10 [13] = test: Induction of apoptosis in mouse B16-F10 cells assessed as live cells at 250 nM incubated for 48 hrs by Annexin V-FITC/PI staining based flow cytometry analysis (reference value: 92.85 %); assay type: functional
B16-F10 [14] = test: Induction of apoptosis in mouse B16-F10 cells assessed as early apoptotic cells at 250 nM incubated for 48 hrs by Annexin V-FITC/PI staining based flow cytometry analysis (reference value: 3.42%); assay type: functional
B16-F10 [15] = test: Induction of apoptosis in mouse B16-F10 cells assessed as dead cells at 250 nM incubated for 48 hrs by Annexin V-FITC/PI staining based flow cytometry analysis (reference value: 1.75%); assay type: functional
B16-F10 [16] = test: Induction of cell cycle arrest in mouse B16-F10 cells assessed as accumulation of cells at S phase at 125 nM incubated for 24 hrs by RNase/PI staining based flow cytometry analysis (reference value: 12.45%); assay type: functional
B16-F10 [17] = test: Induction of cell cycle arrest in mouse B16-F10 cells assessed as accumulation of cells at G1 phase at 250 nM incubated for 24 hrs by RNase/PI staining based flow cytometry analysis (reference value: 68.89%); assay type: functional
B16-F10 [18] = test: Induction of cell cycle arrest in mouse B16-F10 cells assessed as accumulation of cells at G2 phase at 250 nM incubated for 24 hrs by RNase/PI staining based flow cytometry analysis (reference value: 16.13%); assay type: functional
B16-F10 [19] = test: Induction of cell cycle arrest in mouse B16-F10 cells assessed as accumulation of cells at S phase at 250 nM incubated for 24 hrs by RNase/PI staining based flow cytometry analysis (reference value: 12.45%); assay type: functional
[20] = Acute toxicity in zebra fish embryos incubated for 72 hrs; set-up: species or system Danio rerio; settings: zebrafish
B16-F10 [21] = test: Anticancer activity against mouse B16-F10 cells xenografted in zebra fish embryos assessed as inhibition of cell growth at 1 uM measured at 6 days post fertilization; assay type: functional, cell-based; settings: time 6.0 day
B16-F10 [22] = test: Inhibition of colony formation in mouse B16-F10 cells at 0.25 to 1 uM incubated for 7 days with media replacement for every 2 days by crystal violet staining based analysis; assay type: functional, cell-based; settings: dose 0.25-1 µM, time 7.0 day
B16-F10 [23] = test: Inhibition of cell migration in mouse B16-F10 cells at 0.25 to 1 uM by wound healing assay; assay type: functional, cell-based; settings: dose 0.25-1 µM
[24] = Toxicity in C57BL/6J mouse implanted with mouse B16-F10 cells at 20 to 40 mg/kg, ip administered once daily for 2 weeks and measured every 2 days; assay type: organism-based; settings: in vivo, 336 h, dose 20-40 mg/kg
B16-F10 [25] = test: Anticancer activity against mouse B16-F10 cells implanted in C57BL/6J mouse assessed as reduction in CDK4/6 positive cells in tumor at 20 mg/kg, ip administered once daily for 2 weeks and measured every 2 days by immunohistochemical analysis; assay type: functional, organism-based
B16-F10 [26] = test: Anticancer activity against mouse B16-F10 cells implanted in C57BL/6J mouse assessed as increase in necrosis at 20 mg/kg, ip administered once daily for 2 weeks and measured every 2 days by H and E staining based analysis; assay type: functional, organism-based
Lung = test: Downregulation of CDK4/6 protein level in lung of C57BL/6J mouse implanted with mouse B16-F10 cells at 20 mg/kg, ip administered once daily for 2 weeks and measured every 2 days by immunohistochemical analysis; assay type: functional, organism-based

COc1c(C)cnc(Cn2cc(C#CCCn3cc(CNC(=O)CN4CCN(c5ccc(Nc6ncc7c(C)c(C(C)=O)c(=O)n(C8CCCC8)c7n6)nc5)CC4)nn3)c3c(Cl)nc(N)nc32)c1C
pKd [1]: 6.45 | pEC50 [2]: 7.59 | pEC50 [3]: 7.72 | Activity [4]: inactive | Activity [5]: inactive | Activity (B16-F10 [6]): Active | Activity [7]: inactive | pIC50 (A549): 6.07 | Activity [8]: Active | Activity [9]: Active | pIC50 (B16-F10 [10]): 6.95 | pIC50 (A-375): 6.90 | pIC50 (HepG2): 6.30 | pIC50 (MDA-MB-231): 6.50 | Activity (B16-F10 [11]): 14.42% | Activity (B16-F10 [12]): 1.77% | Activity (B16-F10 [13]): 62.24% | Activity (B16-F10 [14]): 20.11% | Activity (B16-F10 [15]): 2.55% | Activity (B16-F10 [16]): 7.58% | Activity (B16-F10 [17]): 81.26% | Activity (B16-F10 [18]): 16.12% | Activity (B16-F10 [19]): 2.08% | LC50 at 72 h [20]: > 100 µM | inhibition (B16-F10 [21]): Active | inhibition (B16-F10 [22]): Active | inhibition (B16-F10 [23]): Active | Activity [24]: Non-Toxic | Activity (B16-F10 [25]): Active | Activity (B16-F10 [26]): Active | Activity (Lung): inactive
